Data as given in ChEMBL document CHEMBL1938294, “DNA binding and anticancer activity of naphthalimides with 4-hydroxyl-alkylamine side chains at different lengths” (Bioorg Med Chem Lett, 2012).
Activity calls are given as the source filed them. The rule behind the calls is not given here.

What was measured:
Nucleic Acid [1] = test: Binding affinity to calf thymus DNA by UV-Vis spectroscopy; format: nucleic-acid assay; settings: Bos taurus
Nucleic Acid [2] = test: Binding affinity to calf thymus DNA assessed as bathochromic shift at 1 x 10^-5 M by UV-Vis spectroscopy; format: nucleic-acid assay; settings: Bos taurus
Nucleic Acid [3] = test: Binding affinity to calf thymus DNA assessed as hypochromicity at 1 x 10^-5 M by UV-Vis spectroscopy; format: nucleic-acid assay; settings: Bos taurus
Nucleic Acid [4] = test: Binding affinity to calf thymus DNA assessed as intercalation at 1 x 10^-5 M by fluorescence spectroscopy; format: nucleic-acid assay; settings: Bos taurus
Nucleic Acid [5] = test: Binding affinity to calf thymus DNA assessed as efficiency of fluorescence enhancement at 1 x 10^-5 M by fluorescence spectroscopy; format: nucleic-acid assay; settings: Bos taurus
Nucleic Acid [6] = test: Binding affinity to calf thymus DNA assessed as intercalation at 2 x 10^-5 M by CD spectroscopy; format: nucleic-acid assay; settings: Bos taurus
Nucleic Acid [7] = test: Binding affinity to calf thymus DNA assessed as melting temperature at 5 x 10^-6 M by thermal denaturation assay (reference value: 68.4 degC); format: nucleic-acid assay; settings: Bos taurus
Nucleic Acid [8] = test: Binding affinity to calf thymus DNA assessed as change in melting temperature at 5 x 10^-6 M by thermal denaturation assay; format: nucleic-acid assay; settings: Bos taurus
Bel-7402 = test: Cytotoxicity against human Bel7402 cells by MTT assay; format: functional, cell-based
HL-60 = test: Cytotoxicity against human HL60 cells by MTT assay; format: functional, cell-based

| Structure (SMILES) | K (Nucleic Acid [1]) [×10⁴ /M] | Activity (Nucleic Acid [2]) [nm] | Activity (Nucleic Acid [3]) [%] | Activity (Nucleic Acid [4]) | KSV (Nucleic Acid [5]) [×10³ /M] | Activity (Nucleic Acid [6]) | Tm (Nucleic Acid [7]) [°C] | ΔTm (Nucleic Acid [8]) [°C] | IC50 (Bel-7402) [µM] | IC50 (HL-60) [µM] |
| --- | --- | --- | --- | --- | --- | --- | --- | --- | --- | --- |
| CN(C)CCN1C(=O)c2cccc3c(NCCCCO)ccc(c23)C1=O | 0.74 | 452 | 30 | Active | 1.15 | Active | 71.2 | 2.8 | 5.57 | 11.2 |
| CN(C)CCN1C(=O)c2cccc3c(NCCCCCCO)ccc(c23)C1=O | 1.1 | 453 | 31 | Active | 7.12 | Active | 71.8 | 3.4 | 17.5 | 20.5 |

Now from value to compound, other results behind:

| K (Nucleic Acid [1]) [×10⁴ /M] | Activity (Nucleic Acid [2]) [nm] | Activity (Nucleic Acid [3]) [%] | Activity (Nucleic Acid [4]) | KSV (Nucleic Acid [5]) [×10³ /M] | Activity (Nucleic Acid [6]) | Tm (Nucleic Acid [7]) [°C] | ΔTm (Nucleic Acid [8]) [°C] | Structure (SMILES) | IC50 (Bel-7402) [µM] | IC50 (HL-60) [µM] |
| --- | --- | --- | --- | --- | --- | --- | --- | --- | --- | --- |
| 1.2 | 453 | 31 | Active | 4.36 | Active | 72.2 | 3.8 | CN(C)CCN1C(=O)c2cccc3c(NCCCCCO)ccc(c23)C1=O | 9.17 | 17.7 |
| 1.44 | 447 | 31 | Active | 3.12 | Active | 71 | 2.6 | CN(C)CCN1C(=O)c2cccc3c(NCCO)ccc(c23)C1=O | 30.9 | 25.9 |
| 1.03 | 453 | 31 | Active | 4.03 | Active | 71.9 | 3.5 | CN(C)CCN1C(=O)c2cccc3c(NCCCO)ccc(c23)C1=O | 33.5 | 38.5 |
